Measurements taken from PMC11412156 (Journal of medicinal chemistry, 2024).
Several values for one entry are separate records, joined by “and”; a condition that tells them apart may be missing. Equal values may be shown once.

How the values were obtained:
[1] = In vitro metabolic stability in rat liver microsomes; format: in vitro ADME; conditions: for half-life: Sprague-Dawley, rat, liver microsomes, pH 7.4; for metabolic stability in RLM, column 0: incubation 0 min; for metabolic stability in RLM, column 0 / metabolic stability in RLM, column 10 / metabolic stability in RLM, column 30 / metabolic stability in RLM, column 45 / metabolic stability in RLM, column 60: 37 °C, NADPH; for metabolic stability in RLM, column 10: incubation 10 min; for metabolic stability in RLM, column 30: incubation 30 min; for metabolic stability in RLM, column 45: incubation 45 min; for metabolic stability in RLM, column 60: incubation 60 min
MsEH = target: T1, MsEH (Mus musculus, UniProt P34914); assay: fluorescent-based sEH assay with PHOME as substrate; format: biochemical
T1 sequence (P34914 1-554): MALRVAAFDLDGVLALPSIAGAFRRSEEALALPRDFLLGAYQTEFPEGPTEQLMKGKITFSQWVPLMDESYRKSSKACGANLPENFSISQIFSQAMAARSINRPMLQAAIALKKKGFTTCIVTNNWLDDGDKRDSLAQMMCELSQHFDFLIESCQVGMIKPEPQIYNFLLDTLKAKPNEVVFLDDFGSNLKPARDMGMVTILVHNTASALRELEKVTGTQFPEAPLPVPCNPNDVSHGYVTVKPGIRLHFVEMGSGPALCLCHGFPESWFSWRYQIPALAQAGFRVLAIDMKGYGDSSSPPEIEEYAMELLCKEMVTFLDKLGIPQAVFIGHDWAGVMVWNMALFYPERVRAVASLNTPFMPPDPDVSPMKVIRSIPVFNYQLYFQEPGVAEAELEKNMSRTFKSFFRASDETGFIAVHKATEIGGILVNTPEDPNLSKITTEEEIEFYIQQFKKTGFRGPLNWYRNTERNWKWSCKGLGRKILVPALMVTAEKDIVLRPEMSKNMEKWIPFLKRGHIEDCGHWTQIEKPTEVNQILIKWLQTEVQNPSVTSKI

[2] = Pharmacokinetic study in rats; format: in vivo, SD rats; conditions: for CL / Vz: SD rats, ig (oral) 50 mg/kg; for AUC(0-inf) / AUC(0-t) / Cmax / Tmax / Vd / clearance / half-life / bioavailability: both, Sprague-Dawley, rat, plasma; for bioavailability: oral
HDAC8 = target: T2, HDAC8 (Homo sapiens, UniProt Q9BY41); assay: HDAC enzyme-based fluorogenic assay, HDAC8; format: biochemical
T2 sequence (Q9BY41 1-377): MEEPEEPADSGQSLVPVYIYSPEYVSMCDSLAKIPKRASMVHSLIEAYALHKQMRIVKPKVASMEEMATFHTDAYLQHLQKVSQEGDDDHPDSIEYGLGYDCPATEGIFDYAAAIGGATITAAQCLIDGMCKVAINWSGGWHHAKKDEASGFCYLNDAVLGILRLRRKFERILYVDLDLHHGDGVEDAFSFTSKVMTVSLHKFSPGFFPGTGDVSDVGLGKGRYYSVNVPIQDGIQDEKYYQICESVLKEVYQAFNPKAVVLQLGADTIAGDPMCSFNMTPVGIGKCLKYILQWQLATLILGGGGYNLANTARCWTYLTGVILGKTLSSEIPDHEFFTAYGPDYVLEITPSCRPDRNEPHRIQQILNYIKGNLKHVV

HDAC6 = target: T3, HDAC6 (Homo sapiens, UniProt Q9UBN7); assay: HDAC enzyme-based fluorogenic assay, HDAC6; format: biochemical; conditions: for HDAC6 inhibitor rate: final concentration of 2 μM, preliminary screen; for Selectivity Index HDAC1/HDAC6 / Selectivity Index HDAC2/HDAC6 / Selectivity Index HDAC3/HDAC6 / Selectivity Index HDAC8/HDAC6 / Selectivity Index HDAC11/HDAC6: ratio of IC50 values
T3 sequence (Q9UBN7 1-1215): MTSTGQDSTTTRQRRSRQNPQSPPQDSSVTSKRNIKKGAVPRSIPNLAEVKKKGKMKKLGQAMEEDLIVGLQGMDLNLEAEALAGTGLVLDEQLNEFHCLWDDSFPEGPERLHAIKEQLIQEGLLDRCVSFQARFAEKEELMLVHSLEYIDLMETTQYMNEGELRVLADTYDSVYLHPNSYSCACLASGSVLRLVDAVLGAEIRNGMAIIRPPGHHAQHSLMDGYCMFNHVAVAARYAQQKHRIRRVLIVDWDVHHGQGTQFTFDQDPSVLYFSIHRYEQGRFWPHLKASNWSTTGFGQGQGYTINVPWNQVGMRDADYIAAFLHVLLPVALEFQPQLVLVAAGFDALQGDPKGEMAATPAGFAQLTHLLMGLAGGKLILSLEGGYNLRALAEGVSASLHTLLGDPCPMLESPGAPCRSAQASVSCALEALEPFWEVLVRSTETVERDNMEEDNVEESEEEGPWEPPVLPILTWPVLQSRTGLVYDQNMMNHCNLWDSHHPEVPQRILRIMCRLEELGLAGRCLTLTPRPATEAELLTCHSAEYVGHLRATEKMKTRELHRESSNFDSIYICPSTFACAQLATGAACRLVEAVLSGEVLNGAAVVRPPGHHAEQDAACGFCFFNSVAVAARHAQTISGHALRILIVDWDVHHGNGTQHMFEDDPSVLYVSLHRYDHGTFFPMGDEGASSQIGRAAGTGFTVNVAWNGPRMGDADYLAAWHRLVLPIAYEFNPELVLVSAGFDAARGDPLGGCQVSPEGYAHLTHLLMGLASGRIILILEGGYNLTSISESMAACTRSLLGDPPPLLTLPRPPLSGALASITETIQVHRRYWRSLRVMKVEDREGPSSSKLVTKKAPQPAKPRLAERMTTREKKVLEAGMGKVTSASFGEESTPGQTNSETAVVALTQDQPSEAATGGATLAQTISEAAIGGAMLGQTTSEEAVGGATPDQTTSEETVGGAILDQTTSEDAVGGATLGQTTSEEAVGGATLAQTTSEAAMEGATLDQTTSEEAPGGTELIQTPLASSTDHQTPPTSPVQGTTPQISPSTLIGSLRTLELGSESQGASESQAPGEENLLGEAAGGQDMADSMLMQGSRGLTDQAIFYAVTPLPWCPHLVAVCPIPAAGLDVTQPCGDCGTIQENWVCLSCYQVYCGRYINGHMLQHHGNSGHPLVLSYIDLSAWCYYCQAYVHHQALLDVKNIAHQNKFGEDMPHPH

Row | SMILES | half-life [1] [h] | metabolic stability in RLM, column 0 [1] | metabolic stability in RLM, column 10 [1] | metabolic stability in RLM, column 30 [1] | metabolic stability in RLM, column 45 [1] | metabolic stability in RLM, column 60 [1] | IC50 (MsEH) [nM] | CL [2] [L/h] | Vz [2] [L] | AUC(0-inf) ([2]; iv, 10 mg/kg) [µM·h] | AUC(0-t) ([2]; iv, 10 mg/kg) [µM·h] | Cmax ([2]; iv, 10 mg/kg) [µM] | Tmax ([2]; iv, 10 mg/kg) [h] | Vd ([2]; iv, 10 mg/kg) [L] | clearance ([2]; iv, 10 mg/kg) [mL/min] | half-life ([2]; iv, 10 mg/kg) [h] | bioavailability ([2]; 50 mg/kg) [%] | AUC(0-inf) ([2]; po, 50 mg/kg) [µM·h] | AUC(0-t) ([2]; po, 50 mg/kg) [µM·h] | Cmax ([2]; po, 50 mg/kg) [µM] | further results
1 | O=C(CCCCCCNC(=O)[C@H]1CCCN(C(=O)c2ccc(NC(=O)Nc3cc(F)cc(F)c3)c(F)c2)C1)NO [Compound 28j, (S)-1-(4-(3-(3,5-Difluorophenyl)ureido)-3-fluorobenzoyl)-N-(7-(hydroxyamino)-7-oxoheptyl)piperidine-3-carboxamide] | 0.939 | 100.00 | 85.62 | 73.00 | 59.75 | 50.47 | 103 | 0.96 | 3.95 | 20 | 13.8 | 8.1 | 0.08 | 1.1 | 3 | 4.08 | 21.5 | 18.7 | 14.8 | 10.1 | Tmax ([2]; po, 50 mg/kg): 0.17 h; half-life ([2]; po, 50 mg/kg): 2.84 h; IC50 (HDAC8): 72 nM; IC50 (HDAC6): 8 nM; HDAC6 inhibitor rate (HDAC6): > 91% and 98.92%; Selectivity Index HDAC1/HDAC6 (HDAC6): 129; Selectivity Index HDAC2/HDAC6 (HDAC6): 134; Selectivity Index HDAC3/HDAC6 (HDAC6): 327; Selectivity Index HDAC8/HDAC6 (HDAC6): 9; Selectivity Index HDAC11/HDAC6 (HDAC6): 132
2 | O=C(CCCCCCNC(=O)[C@H]1CCCN(C(=O)c2ccc(NC(=O)Nc3ccc(Cl)c(F)c3)c(F)c2)C1)NO [Compound 28g, (S)-1-(4-(3-(4-Chloro-3-fluorophenyl)ureido)-3-fluorobenzoyl)-N-(7-(hydroxyamino)-7-oxoheptyl)piperidine-3-carboxamide] | 2.28 | 100.00 | 91.61 | 83.80 | 78.76 | 70.64 | 46.8 | 0.82 | 4.20 | 21.2 | 12.3 | 7.87 | 0.08 | 1.28 | 2.67 | 5.43 | 24.4 | 21.2 | 15 | 6.63 | Tmax ([2]; po, 50 mg/kg): 0.5 h; half-life ([2]; po, 50 mg/kg): 3.55 h; IC50 (HDAC8): 62 nM; IC50 (HDAC6): 8 nM; HDAC6 inhibitor rate (HDAC6): > 91% and 99.78%; Selectivity Index HDAC1/HDAC6 (HDAC6): 144; Selectivity Index HDAC2/HDAC6 (HDAC6): 62; Selectivity Index HDAC3/HDAC6 (HDAC6): 160; Selectivity Index HDAC8/HDAC6 (HDAC6): 8; Selectivity Index HDAC11/HDAC6 (HDAC6): 58
